Assay results from patent US9766197B2, “Methods for generating pH/ionic concentration gradient near electrode surfaces for modulating biomolecular interactions, and bubble detection using electrodes” (Robert Bosch GmbH, priority 2014, dated 2017).

Legend:
[1] = Electrochemical modulation of pH at ITO working electrode monitored by GFP fluorescence intensity; type: physicochemical
From the text: After current was turned off, the pH recovered to neutral value within 50 seconds.
Electrode material used: The electrode material was indium tin oxide. The fluorescent protein used is GFP immobilized on a glass substrate which includes an array of electrodes. The GFP is applied as spots, each spot covers an area that overlaps with one electrode and an area that is not overlapping with an electrode.
The pH change at the surface of ITO working electrode is generated via current-driven oxidation of a redox active molecule, 2-methyl-1,4-dihydroquinone, in diluted phosphate buffer (pH=7.4) containing 0.1M Na2SO4. […] FIG. 10 is used as calibration curve to assess the pH values.

[2] = Electro-oxidation of ascorbic acid at indium tin oxide electrode (cyclic voltammetry); type: physicochemical; conditions: Indium tin oxide vs Ag/AgCl reference electrode
From the text: FIG. 7B: Cyclic voltammetric study of the oxidation of Ascorbic acid test in ITO electrodes.
(§1) Electrode material used: The electrode material was indium tin oxide. This is a semiconducting electrode surface with very large potential window in an aqueous solution.
Oxidation of ascorbic acid at the electrode surfaces produced H^+ ions and changed the electrode surface pH to a more acidic state: AH2→A+2H^++2e^−, where AH2 is ascorbic acid ([…]) (as shown in FIG. 5). The electrode potential at which it oxidizes was less than 0.5V for Indium tin oxide material vs Ag/AgCl reference electrode (as shown in FIG. 7). This potential was less than the voltages needed for the oxygen evolution reaction in aqueous solution. The ascorbic acid also acted as a sacrificial species to prevent electrochemical degradation of the surface chemistry.

[3] = target: Green Fluorescent Protein (GFP) (Aequorea victoria, UniProt P42212); experiment: Fluorescence intensity of GFP after incubation with benzoquinones (protein stability); type: biochemical; conditions: 0.5 mM benzoquinone, phosphate buffered saline, 30 min
From the text: Para-benzoquinones and ortho-benzoquinones (compounds 2, 4, 6, and 9 in FIG. 31) are susceptible to nucleophilic attack at the double bond of the ring (positions 2, 3, 5 and 6 in structure 2 of FIG. 31, positions 3, 4, 5 and 6 in structure 4 of FIG. 31, and positions 2 and 3 in structure 6 of FIG. 31). Introducing substituents at some or all of those positions can mitigate the problem of nucleophilic attack. For example, 1,4-benzoquinone (structure 2 in FIG. 31, where R1, R2, R3 and R4 are H) undergoes Michael addition reaction with amino groups of proteins (Loomis et al., Phytochemistry, 5, 423, (1966) and U.S. Pat. No. 6,753,312 B2). […] Fluorescence intensity of Green Fluorescent Protein (GFP) was measured after incubation with three different benzoquinones in phosphate buffered saline for 30 min (concentration of benzoquinones was 0.5 mM). The difference in fluorescence intensity indicates the varied effect that the different substitutions in benzoquinones have on the stability of GFP. Fluorescence intensity of GFP is indicative of its structural integrity. Losses in fluorescence intensity usually indicate loss of its tertiary structure (protein denaturation) (Yin D. X., Zhu L., Schimke R. T. Anal. Biochem. 1996, 235:195-201).

[4] = Electro-reduction of benzoquinone into hydroquinone to produce OH- ions; type: physicochemical
From the text: as §1
Reduction of benzoquinone (C6H4O2) into Hydroquinone (C6H6O2) can produce OH^− ions at −0.1V: BQ+2e^−+2H2O→HQ+2OH^− This reduction reaction increased the pH at the electrode interface.

SMILES: Cc1cc(O)ccc1O [2-methyl-1,4-dihydroquinone]
- solution pH after current-driven oxidation ([1]; 50 microamps for 30 second, diluted phosphate buffer pH 7.4, 0.1M Na2SO4, ITO working electrode): 5.5
- time for pH to recover to neutral value after current was turned off ([1]; diluted phosphate buffer pH 7.4, 0.1M Na2SO4): ≤ 50 seconds

SMILES: O=C1O[C@H]([C@@H](O)CO)C(O)=C1O [ascorbic acid]
- electrode potential at which it oxidizes [2]: less than 0.5 V

SMILES: O=C1C=CC(=O)C=C1 [unsubstituted benzoquinone, 1,4-benzoquinone]
- loss in GFP fluorescence intensity after incubation [3]: 25%
- potential of reduction producing OH- ions [4]: −0.1 V
